The values below come from patent US9734283B2, “Genomic features associated with epigenetic control regions and transgenerational inheritance of epimutations” (priority 2011, dated 2017).

One series has as its system CD-1 and 129 strain mice. As to the kind of experiment: Transgenerational pathology analysis of adult onset disease (testis, prostate, kidney). It is filed as in vivo, mouse. On the procedure:
The experimental design involved exposing gestating female inbred 129 strain and outbred CD-1 strain mice to daily intraperitoneal (IP) injections of vehicle (DMSO) (control) or vinclozolin at two doses, 100 mg/kg/day (V1) or 200 mg/kg/day (V2), between embryonic day 7-13 of gestation. In addition, a comparison was used with flutamide IP injections at a 20/mg/kg/day dose. The F1 generation males and females from different litters were bred to generate the F2 generation animals and F2 generation males and females from different litters were bred to generate the F3 generation animals, see Methods below. No sibling or cousin breedings occurred to avoid any inbreeding artifacts. Selected F1, F2 and F3 generation animals from postnatal 90 (P90) or 300 (P300) days of age were analyzed for testis, sperm and other pathologies as previously described.^11, 20, 21
Timed pregnant inbred 129 mice were given intraperitoneal injections with vinclozolin (100 mg/kg·day, 99% pure; ChemService, West Chester, Pa.), flutamide (20 mg/kg·day, Sigma, St. Louis, Mo.) or DMSO in sesame oil (vehicle) as controls, while timed pregnant outbred CD-1 mice were given intraperitoneal injections (IP) with vinclozolin doses: 100 mg/kg·day (V1) or 200 mg/kg·day (V2) or DMSO in sesame oil as controls.^21 Mice were given injections from embryonic day (E) E7-E13, with plug date equal to day 0. Controls were injected with vehicle (DMSO) dose and were matched with vinclozolin or flutamide treatment animals within the same mouse strain at the time of injection and were analyzed together throughout all three generations. The number of treated gestating females used were: for mouse 129 strain (3 controls and 4 vinclozolin treated); for mouse 129 strain flutamide 20 mg/kg/day dose (3 controls and 3 flutamide treated); and for mouse CD-1 strain (4 control and 3 vinclozolin treated (100 mg/kg/day (V1), 3 vinclozolin 200 mg/kg/day (V2)). F1 postnatal (P)P90 males and females from different litters of control, vinclozolin and flutamide treatment groups were bred to generate the F2 generation. F2 generation mice were bred to generate the F3 generation. Breedings were carefully monitored to eliminate any sibling or cousin breeding to remove potential phenotypes as a result of inbreeding. Male mice were collected and analyzed between P60-P90 (P90) for all generations and treatment groups. The number of P90 males collected for replicates for the mouse 129 strain vinclozolin treatment group (i.e. n value) were: for F1 (8 control, 11 vinclozolin); for F2 (11 control, 22 vinclozolin); and for F3 (11 control, 11 vinclozolin). […]

For a further series, the system named is rats. The conditions noted are these: previous study; mammary tumors, prostate disease, kidney disease, testis and immune abnormalities; cited from earlier work.
Another series deals with caudal epididymal sperm. As to the kind of experiment: Epididymal sperm motility and concentration analyses. It is filed as in vivo, mouse. On the procedure:
The sperm motility was determined using caudal epididymal sperm. The epididymis was dissected free of connective tissue and a small cut made to the cauda. The tissue was placed in 2 ml F12 culture medium containing 0.1% BSA for 10 minutes at 37° C. Fifty microliters was placed on a warm slide and gently cover-slipped. The specimen was immediately examined using phase contrast microscopy with 200×magnification. The sperm motility assays examined rapid progressive, slow progressive and non-progressive motility according to WHO category.^51 The ratio of motile sperm to the total number of sperm, including immotile sperm, was calculated. Approximately 50-100 sperm were counted per microscopic field. The procedure was repeated at least twice with a new specimen from the same epididymis. Epididymal sperm count was determined using the same epididymis according to a previously described method with some modifications.^25, 52 Briefly, the epididymis that was placed in the 2 ml of culture medium was minced. The tissue pieces were stored at 4° C. for 48 hours to immobilize the sperm. Three independent sperm samples were counted using a hemocytometer. The counts were averaged and used as a replicate in statistical analysis. The control and vinclozolin generation analysis and the control and flutamide generation analysis for an individual experiment were done at the same time. All analyses were done blinded, such that different individuals were used for collection and counting.

Series [1] deals with sperm promoter epigenome (DNA methylation). As to the kind of experiment: MeDIP-Chip with Affymetrix mouse promoter tiling arrays. The series is classed as in vivo. The conditions noted are these: duplicate arrays, no direct comparative hybridization; none confirmed by bisulfite PCR and mass spectrometry. An excerpt: Affymetrics' GeneChip® Mouse Promoter 1.0R Array was used, which contains 4.6 million probes tiled that interrogate nearly 28,000 mouse promoter regions. These probes are 25-mer and tiled at an average resolution of 35 bp with gaps of approximately 10 bp between probes. Each promoter region covers approximately 6 kb upstream through 2.5 kb downstream of 5′ transcription start sites. A total of 6 arrays were used, one each for C1, C2, V1 and V2, one for C1+C2 and another for their DNA inputs, InpC1+InpC2.

The next series deals with CD-1 mice ovaries. Put plainly: Identification of ovarian cysts in vinclozolin lineage females. It is filed as in vivo, mouse. The conditions noted are these: CD-1 females, all F1-F3 generations, V2 200 mg/kg/day; p<0.05. As to the method: Abnormalities in adult females of the F1, F2 and F3 generations were not extensively evaluated. However, at the time of sacrifice and dissection it was noticed that some females had cystic structures on their ovaries. These were grossly visible fluid-filled structures larger than normal Graffian follicles. If an animal had one or more cystic structures on one or both ovaries, then that female was considered to have cystic ovaries. A sub-set of 17 ovaries was also evaluated histologically, and there was concordance of ovaries labeled as cystic at gross dissection with the histologic presence of very large cystic structures. Cysts were defined as structures having a lining of none or a single layer of granulosa cells and an increased thickness of the surrounding stromal/thecal layer compared to what is found in large antral follicles.

Setting [2] is: F3 generation vinclozolin lineage CD-1 mice, P300, p<0.02 vs controls.

Turning to `C=CC1(C)OC(=O)N(c2cc(Cl)cc(Cl)c2)C1=O` (racemic) [vinclozolin, (RS)-3-(3,5-dichlorophenyl)-5-methyl-5-vinyl-1,3-oxazolidine-2,4-dione], in the series with CD-1 and 129 strain mice (setting [2]), the “animals that developed at least one disease” value was determined as 75% and the “animals with two or more disease states” value is 34%. The “proportion of mice exhibiting abnormal disease-like characteristics in testis, prostate, and kidney tissues” value with CD-1 and 129 strain mice (aged (P300) F3 generation CD-1 strain, vinclozolin lineage vs control) is “increases”. For the same compound, the “adult onset disease of the prostate, kidney, testis or ovaries” value in the series on CD-1 and 129 strain mice (inbred 129 strain mice, between treatment groups) was “no observable differences”. The “frequencies of adult onset disease states” value in the series on rats is 20-50%. In the series with caudal epididymal sperm (primarily F1 generation, not observed in 129 strain F2 or F3), the “mean epididymal sperm concentration” value is “reduction”. Moreover, in the series on caudal epididymal sperm (primarily in the F1 generation males), the “mean percentage of motile epididymal sperm” value is “reduction”. The “number of differential methylation regions identified with Affymetrix tiling arrays” value in series [1] is listed as “seven”. Moreover, in the series on CD-1 mice ovaries, the ovarian cysts result was “significant increase”.
